Measured values reported in patent US20120095215A1, “MEDICAL COMPOSITION FOR TREATMENT OR PROPHYLAXIS OF EYE DISEASES” (UBE INDUSTRIES, LTD., priority 2009, published 2012).
Where a name gives a salt, the structure may show the parent alone.

Tests used:
αvβ3 protein = target: T1, αvβ3 protein (Homo sapiens, UniProt P05106+P06756); experiment: αvβ3 protein binding test (fluorescence polarization, FITC-Echistatin); conditions: inhibition of binding of Echistatin and αvβ3 protein, 37° C., 30 minutes
T1 construct: purchased CHEMICON CORP; CC1019
T1 sequence (P06756 31-889 limits assumed): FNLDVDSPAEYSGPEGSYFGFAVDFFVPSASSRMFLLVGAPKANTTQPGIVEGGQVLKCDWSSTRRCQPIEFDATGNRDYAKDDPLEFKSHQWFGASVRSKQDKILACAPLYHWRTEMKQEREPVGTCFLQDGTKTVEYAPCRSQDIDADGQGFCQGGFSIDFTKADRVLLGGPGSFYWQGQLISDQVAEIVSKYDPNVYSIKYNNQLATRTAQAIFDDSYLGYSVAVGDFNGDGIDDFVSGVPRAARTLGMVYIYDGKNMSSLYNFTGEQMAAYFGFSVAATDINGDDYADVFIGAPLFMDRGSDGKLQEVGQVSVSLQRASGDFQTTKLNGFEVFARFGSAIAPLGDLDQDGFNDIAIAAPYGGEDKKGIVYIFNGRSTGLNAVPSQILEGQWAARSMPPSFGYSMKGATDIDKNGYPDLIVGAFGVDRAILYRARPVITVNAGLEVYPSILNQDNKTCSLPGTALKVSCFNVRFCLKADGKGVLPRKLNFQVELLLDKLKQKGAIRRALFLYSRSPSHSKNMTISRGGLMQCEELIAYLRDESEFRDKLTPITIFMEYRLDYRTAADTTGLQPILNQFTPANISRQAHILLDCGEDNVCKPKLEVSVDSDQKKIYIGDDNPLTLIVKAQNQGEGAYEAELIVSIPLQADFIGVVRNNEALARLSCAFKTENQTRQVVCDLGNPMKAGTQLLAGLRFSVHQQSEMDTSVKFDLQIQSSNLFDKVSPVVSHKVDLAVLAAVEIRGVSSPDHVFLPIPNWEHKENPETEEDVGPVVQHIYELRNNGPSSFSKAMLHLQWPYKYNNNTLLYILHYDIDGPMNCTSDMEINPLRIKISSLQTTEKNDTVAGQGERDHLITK
T1 sequence (P06756 891-1048 partner limits assumed): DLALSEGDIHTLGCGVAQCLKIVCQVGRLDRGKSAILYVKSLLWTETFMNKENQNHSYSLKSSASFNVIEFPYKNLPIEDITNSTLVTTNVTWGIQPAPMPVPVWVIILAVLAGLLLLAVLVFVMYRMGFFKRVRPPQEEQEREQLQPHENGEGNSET
T1 sequence (P05106 27-788): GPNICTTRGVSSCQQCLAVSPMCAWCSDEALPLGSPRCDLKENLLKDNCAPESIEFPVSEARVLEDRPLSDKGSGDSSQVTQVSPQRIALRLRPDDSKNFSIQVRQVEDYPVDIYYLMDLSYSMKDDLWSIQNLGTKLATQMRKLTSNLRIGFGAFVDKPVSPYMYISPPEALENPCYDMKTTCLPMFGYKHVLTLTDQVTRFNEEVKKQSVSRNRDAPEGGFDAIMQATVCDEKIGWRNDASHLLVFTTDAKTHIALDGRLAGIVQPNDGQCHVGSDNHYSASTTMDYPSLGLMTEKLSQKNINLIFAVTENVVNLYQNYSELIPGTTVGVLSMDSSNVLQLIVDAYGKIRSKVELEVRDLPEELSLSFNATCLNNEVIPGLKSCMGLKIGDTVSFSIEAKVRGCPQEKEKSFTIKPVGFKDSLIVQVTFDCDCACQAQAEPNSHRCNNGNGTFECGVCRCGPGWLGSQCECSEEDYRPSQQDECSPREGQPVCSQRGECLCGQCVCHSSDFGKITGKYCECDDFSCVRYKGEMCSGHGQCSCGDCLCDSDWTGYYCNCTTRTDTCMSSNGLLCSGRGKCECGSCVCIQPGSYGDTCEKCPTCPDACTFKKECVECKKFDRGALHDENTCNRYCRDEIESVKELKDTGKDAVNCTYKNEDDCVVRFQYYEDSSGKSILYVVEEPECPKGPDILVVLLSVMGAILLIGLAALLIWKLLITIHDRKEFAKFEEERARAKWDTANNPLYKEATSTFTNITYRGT
Experimental: The method of Davis et al. (Proc. Natl. Acad. Sci., 96(16), 9269 (1999)) was partially modified and carried out.
By using Echistatin (available from SIGMA), Fluorescein Amine Labeling Kit for Peptides and Proteins (available from PanVera Corp., P2058) and Gel Filtration of Proteins Kit (P2101, PanVera Corp.), fluorescein isothiocyanate (hereinafter abbreviated to as FITC)-Echistatin was prepared. Then, with 137 μL of Tris-buffer (10 mM Tris base, 1 mM CaCl2, 1 mM MgCl2, 1 mM MnCl2, pH 7.4) were mixed 1 μL of 200 nM FITC-Echistatin (final concentration: 1 nM) and 2 μL of […] bovine serum albumin (hereinafter abbreviated to as BSA; available from SIGMA) (final concentration: 1 mg/mL). To the mixture was added 10 μL of the test compound, then, 50 μL of 4 nM αvβ3 (CC1019, available from CHEMICON CORP.) (final concentration: 1 nM) was added to the mixture and the resulting mixture was incubated at 37° C. for 30 minutes. By measuring fluorescence polarization degrees with BEACON2000 (available from PanVera Corp.), binding of Echistatin and αvβ3 protein was evaluated. The concentration (IC50 value) of the test compound necessary for inhibiting 50% of binding of Echistatin and αvβ3 protein was calculated by using EXSAS (available from Arm Systecs Co. Ltd.).

[1] = test system: HUVEC (human umbilical vein endothelial cell), αvβ3 expressing cell; experiment: αvβ3 expressing cell adhesion test (HUVEC on human vitronectin); assay type: cell-based; conditions: HUVEC binding to human vitronectin, 50% human serum-containing DMEM, 1 hour; read-out: αvβ3 developed cell adhesion inhibition IC50 value
Experimental: The method of Juliano, et al. (Exp. Cell Res., 225(1), 132 (1996)) was partially modified and carried out.
Human vitronectin (available from CHEMICON CORP.) was adjusted to 10 μg/mL with phosphate buffered saline (hereinafter abbreviated to as PBS). This was apportioned on a 96-well plate (MS9586F, available from SUMIRON Co., Ltd.) with 100 μL/well, subjected to coating at room temperature for 1 hour, then, the coating solution was removed and dried. Thereafter, blocking treatment was carried out by 1.0% BSA dissolved in Dulbecco's Modified Eagle's Medium (hereinafter abbreviated to as DMEM) for 1 hour, followed by washing with PBS, and the obtained material was used for the adhesion test as a coating plate. HUVEC (human umbilical vein endothelial cell) (available from Clonetics Corp.) cultured in an endocerial cell basal medium EBM2 (available from Clonetics Corp.) containing growth factor EGM2 (available from Clonetics Corp.) and 10% fatal bovin serum (hereinafter abbreviated to as FBS) was peeled by using trypsin-ethylenediamine tetraacetic acid, washed by using PBS and recovered, and then, suspended in 50% human serum-containing DMEM to prepare a cell solution of HUVEC. To human vitronectin coating plates was added a 50% human serum-containing DMEM solution containing the HUVEC cell solution and the test compound each 50 μL/plate to start the adhesion test. […]

αvβ5 protein = target: T2, αvβ5 protein (Homo sapiens, UniProt P06756+P18084); experiment: αvβ5 protein binding test (Biotin-Echistatin plate assay); conditions: inhibition of binding between Echistatin and αvβ5 protein
T2 construct: purchased CHEMICON Corp. CC1023
T2 sequence (P06756 31-889 limits assumed): as the sequence (P06756 31-889 limits assumed) above
T2 sequence (P06756 891-1048 partner limits assumed): as the sequence (P06756 891-1048 partner limits assumed) above
T2 sequence (P18084 24-799): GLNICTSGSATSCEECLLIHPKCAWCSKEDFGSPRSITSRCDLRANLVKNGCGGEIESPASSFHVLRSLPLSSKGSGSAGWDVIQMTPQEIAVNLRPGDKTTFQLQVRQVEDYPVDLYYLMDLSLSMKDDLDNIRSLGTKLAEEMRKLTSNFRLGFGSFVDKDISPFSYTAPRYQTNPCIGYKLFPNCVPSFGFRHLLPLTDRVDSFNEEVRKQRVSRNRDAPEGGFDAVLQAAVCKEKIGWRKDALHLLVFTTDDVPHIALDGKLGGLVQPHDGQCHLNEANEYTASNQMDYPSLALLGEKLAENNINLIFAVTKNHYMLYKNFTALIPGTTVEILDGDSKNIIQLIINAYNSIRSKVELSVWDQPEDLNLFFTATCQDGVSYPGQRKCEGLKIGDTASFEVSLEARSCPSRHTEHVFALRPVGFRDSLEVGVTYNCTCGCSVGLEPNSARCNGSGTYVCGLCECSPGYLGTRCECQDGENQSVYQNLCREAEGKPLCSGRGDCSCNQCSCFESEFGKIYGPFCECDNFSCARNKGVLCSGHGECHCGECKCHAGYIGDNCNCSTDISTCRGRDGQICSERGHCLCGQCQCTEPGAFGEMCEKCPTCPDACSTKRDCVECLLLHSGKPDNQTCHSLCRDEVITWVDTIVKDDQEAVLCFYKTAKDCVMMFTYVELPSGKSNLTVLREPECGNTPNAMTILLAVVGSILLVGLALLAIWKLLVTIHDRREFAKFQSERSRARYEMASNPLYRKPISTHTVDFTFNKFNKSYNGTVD
Experimental: The method of C. P. Carron et al. (J. Endocrinology, 165, 587 (2000)) was partially modified and carried out.
By using Echistatin (available from Bachem) and EZ-Link NHS-Biotin Reagent (available from Pierce Biotechnology Inc.), Biotin-Echistatin was prepared. Then, αvβ5 (CC1023, available from CHEMICON Corp.) was mixed with a Tris buffer solution (20 mM tris(hydroxymethyl)aminomethane, 150 mM NaCl, 1 mM CaCl2, 1 mM MgCl2, 1 mM MnCl2, pH 7.5), the mixture was added to Nunc immunoplate Maxisoap (available from Nalge Nunc Int. Co.), and incubated at room temperature overnight. The solution was removed, a Block Ace (available from Dai Nippon Sumitomo Pharma Co., Ltd.) solution was added to the residue and the mixture was incubated at room temperature for 2 hours, then, the solution was again removed and the residue was washed with 0.05% Tween-PBS. Next, a Tris buffer solution containing 10 mg/mL of bovine serum albumin (hereinafter abbreviated to as BSA; available from SIGMA) and the test compound was added to the mixture, and the resulting mixture was incubated at room temperature for 30 minutes. […] An absorbance at 495 nm was measured by Microplate reader (Spectra Fluor, available from TECAN Group, Ltd.) to evaluate binding of Echistatin and αvβ5 protein. […]

SMILES | IC50 (αvβ3 protein) [nM] | IC50 (αvβ5 protein) [nM] | IC50 [1] [nM]
CNc1cccc(CCOc2ccc3c(c2)CN(CC(F)(F)F)C(=O)C(CC(=O)O)C3)n1 (racemic) [Compund A, 8-[2-[6-(methylamino)pyridin-2-yl]-1-ethoxy]-3-oxo-2-(2,2,2-trifluoroethyl)-2,3,4,5-tetrahydro-1H-2-benzazepin-4-acetic acid, reference compound] | 7.1 |  | 161
O=C(O)C[C@@H]1Cc2ccc(OCCCNc3ccccn3)cc2CN(CC(F)(F)F)C1=O [Compund B, (4S)-3-oxo-8-[3-(pyridin-2-ylamino)-1-propyloxy]-2-(2,2,2-trifluoroethyl)-2,3,4,5-tetrahydro-1H-2-benzazepin-4-acetic acid, reference compound] | 2.6 | 1.3 | 
O=C(O)CC1Cc2ccc(OCCc3cn4c(n3)NCCN4)cc2CN(CC(F)(F)F)C1=O (stereo not drawn) [Example 3, 3-Oxo-8-[2-(1,2,3,4-tetrahydroimidazo[1,2-b][1,2,4]triazin-6-yl)ethoxy]-2-(2,2,2-trifluoroethyl)-2,3,4,5-tetrahydro-1H-2-benzazepin-4-acetate trifluoroacetate] | 1.3 |  | 

Now from value to compound, other results behind:

IC50 (αvβ3 protein) [nM] | IC50 (αvβ5 protein) [nM] | SMILES | IC50 [1] [nM]
1.2 |  | O=C(O)CC1Cc2ccc(OCCc3cn4c(n3)NCCC4)cc2CN(CC(F)(F)F)C1=O (stereo not drawn) [Example 2, 3-oxo-8-[2-(5,6,7,8-tetrahydroimidazo[1,2-a]pyrimidin-2-yl)ethoxy]-2-(2,2,2-trifluoroethyl)-2,3,4,5-tetrahydro-1H-2-benzazepin-4-acetate trifluoroacetate] | 61
0.6 | 0.2 | O=C(O)C[C@@H]1Cc2ccc(OCCc3cn4c(n3)NCCC4)cc2CN(CC(F)(F)F)C1=O [Example 4, (4S)-3-oxo-8-[2-(5,6,7,8-tetrahydroimidazo[1,2-a]pyrimidin-2-yl)ethoxy]-2-(2,2,2-trifluoroethyl)-2,3,4,5-tetrahydro-1H-2-benzazepin-4-acetic acid] | 
